Some test systems named below: ACHN renal; SW-620 colon; SNB-19 CNS; SR leukemia; MDA-MB-435; SF-295 CNS; A498 renal; NCI-H522 lung; A549 NSCLC; MDA-N; PC-3 prostate; HL-60(TB) leukemia; SK-MEL-28 melanoma; MCF7 breast; SK-OV-3 ovarian; SN12C renal; BT-549 breast.
Common to all, as to assay: DTP human tumour cell line panel, 48 h

Values joined by “and” are separate entries in the source; they are usually repeats but may differ in a detail not shown here. Equal values may be shown once.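 Results reflect a 48-hour exposure of cells in 96-well plates to compound at five concentrations. GI50 is the concentration that inhibits growth by half. TGI: concentration producing complete growth inhibition.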

`CC(=O)c1ccc2c(c1)CC1(C2)Cc2cc3c(cc2C1=O)CCC3` (stereo not drawn): the concentration for total growth inhibition (TGI) with ACHN renal is 58.2 µM; in the assay on SW-620 colon, over 100 µM; with SNB-19 CNS, over 100 µM; with SR leukemia, 16.7 µM; in the assay with MDA-MB-435 it was 32.4 µM; in the assay on SF-295 CNS it was 49 µM. For the same compound, the TGI in the assay with A498 renal turned out to be 51.7 µM; in the assay on NCI-H522 lung, 83.6 µM; in the assay with A549 NSCLC, 59.5 µM; in the assay with MDA-N it was 32.9 µM; with PC-3 prostate, 72.2 µM; in the assay on HL-60(TB) leukemia, 35.8 µM. In addition, the TGI in the assay with SK-MEL-28 melanoma was 48.8 µM; in the assay on MCF7 breast, 43.8 µM; in the assay on SK-OV-3 ovarian it was 96.3 µM; with SN12C renal, 57.3 µM.
For `Cc1n[nH]c(=O)n1N1C(=O)CCCC1=O`, the TGI with MDA-MB-435, with BT-549 breast, with SF-295 CNS, with A498 renal, in the assay with NCI-H522 lung and in the assay on A549 NSCLC was over 100 µM throughout. Besides, the TGI with MDA-N, in the assay with PC-3 prostate, in the assay with MCF7 breast, with SK-OV-3 ovarian and in the assay on SN12C renal was over 100 µM in each case.
On to `C/C(=N\Nc1ccc([N+](=O)[O-])cc1[N+](=O)[O-])c1sc(-n2nc(-c3ccccc3)cc2-c2ccccc2)nc1C`, for which the TGI in the assay with ACHN renal is over 100 µM; in the assay on SW-620 colon it was over 100 µM; in the assay on SNB-19 CNS it was over 100 µM; in the assay on SR leukemia it was 46.8 µM; in the assay with MDA-MB-435, over 100 µM; in the assay on BT-549 breast, over 100 µM. Also, the TGI is over 100 µM with SF-295 CNS; 92.3 µM in the assay on A498 renal; over 100 µM in the assay with NCI-H522 lung; over 100 µM in the assay with MDA-N; 44.5 µM with HL-60(TB) leukemia; over 100 µM in the assay on SK-MEL-28 melanoma. Further, the TGI in the assay with MCF7 breast, in the assay with SK-OV-3 ovarian and with SN12C renal was over 100 µM throughout.
As to `COC(=O)[C@@H]1CC(C(C[N+](=O)[O-])c2ccc(O[Si](C)(C)C(C)(C)C)cc2)C(=O)N1C(=O)OC(C)(C)C` (stereo partly drawn), the GI50 was 28.1 µM and > 100 µM with ACHN renal; > 100 µM and 34.5 µM in the assay on PC-3 prostate; > 100 µM and 46.2 µM with HL-60(TB) leukemia. Moreover, the TGI in the assay with ACHN renal, with SW-620 colon, in the assay with SNB-19 CNS, in the assay with SR leukemia, in the assay with MDA-MB-435 and with SF-295 CNS was over 100 µM throughout. Besides, the TGI in the assay on A498 renal, in the assay on NCI-H522 lung, in the assay with A549 NSCLC, in the assay with MDA-N, with PC-3 prostate and in the assay on HL-60(TB) leukemia was over 100 µM throughout. The TGI in the assay on SK-MEL-28 melanoma, with MCF7 breast, in the assay on SK-OV-3 ovarian and in the assay with SN12C renal was over 100 µM each time.
Take `CC1CC(C)C(C#N)N(C)c2ccccc21` (stereo not drawn): the TGI in the assay with ACHN renal is over 100 µM; in the assay on SW-620 colon, over 100 µM; in the assay with SNB-19 CNS, over 100 µM; with SR leukemia, 92.2 µM; in the assay with MDA-MB-435 it was over 100 µM; in the assay on SF-295 CNS it was over 100 µM. The TGI in the assay with A498 renal was over 100 µM; in the assay with A549 NSCLC, over 100 µM; in the assay with MDA-N, over 100 µM; with PC-3 prostate, over 100 µM; in the assay with HL-60(TB) leukemia, 64.9 µM; with SK-MEL-28 melanoma it was over 100 µM. Besides, the TGI in the assay with MCF7 breast, in the assay with SK-OV-3 ovarian and in the assay on SN12C renal was over 100 µM each time.
`NC(N)=NCC[C@H](NC(=O)OCCCCCn1ccc(=O)[nH]c1=O)C(=O)O`: the TGI with ACHN renal, in the assay on SW-620 colon, in the assay on SNB-19 CNS, with MDA-MB-435, in the assay with BT-549 breast and in the assay with SF-295 CNS was over 100 µM throughout. In addition, the TGI with A549 NSCLC, with MDA-N, with PC-3 prostate, in the assay on HL-60(TB) leukemia, in the assay on SK-MEL-28 melanoma and in the assay on MCF7 breast was over 100 µM in each case. For the same compound, the TGI in the assay on SK-OV-3 ovarian and in the assay with SN12C renal was over 100 µM throughout.
Turning to `COc1c(F)c(F)c(/C(O)=C\c2nc3ccccc3[nH]c2=O)c(F)c1F`, the TGI with SW-620 colon, in the assay with SR leukemia, with MDA-MB-435, with SF-295 CNS, in the assay with A549 NSCLC and in the assay on MDA-N was over 10 µM throughout. Further, the concentration for total growth inhibition (TGI) in the assay on PC-3 prostate, in the assay on HL-60(TB) leukemia, in the assay with SK-MEL-28 melanoma, in the assay with MCF7 breast, in the assay on SK-OV-3 ovarian and in the assay on SN12C renal was over 10 µM throughout.
For the compound `CCOC(=O)C1C(c2ccc3c(c2)OCO3)c2c([nH][nH]c2=O)CC1(C)O` (stereo not drawn), the TGI with ACHN renal, in the assay with SW-620 colon, in the assay on SNB-19 CNS, in the assay with SR leukemia, with MDA-MB-435 and in the assay with SF-295 CNS was over 100 µM in each case. Besides, the TGI with A498 renal, in the assay with NCI-H522 lung, in the assay on A549 NSCLC, in the assay with MDA-N, with PC-3 prostate and with HL-60(TB) leukemia was over 100 µM each time. Also, the TGI in the assay with SK-MEL-28 melanoma, in the assay with MCF7 breast and in the assay with SN12C renal was over 100 µM in each case.
With `O=C(CCCN1CCC2(CC1)CC(c1ccccc1)OC2=O)c1ccc(F)cc1` (stereo not drawn), the TGI with ACHN renal is over 100 µM; in the assay on SW-620 colon, over 100 µM; in the assay on SNB-19 CNS, over 100 µM; in the assay with SR leukemia, 40.1 µM; in the assay with MDA-MB-435 it was over 100 µM; in the assay on SF-295 CNS, 60.9 µM. For the same compound, the TGI is 74.5 µM in the assay on A498 renal; over 100 µM in the assay with NCI-H522 lung; over 100 µM with A549 NSCLC; over 100 µM in the assay on MDA-N; over 100 µM with PC-3 prostate; over 100 µM in the assay with HL-60(TB) leukemia. For the same compound, the TGI in the assay on SK-MEL-28 melanoma, in the assay with MCF7 breast, in the assay with SK-OV-3 ovarian and with SN12C renal was over 100 µM throughout.

A word on the TGI: it is the concentration giving total growth inhibition. A higher TGI goes with lower sensitivity of the cells. Broadly, the GI50 is the concentration at which growth is held to half of that of the control.

Values taken from PubChem BioAssay (NCI).
